Assay results: patent US7030138B2, “Benzamidine derivatives” (Sankyo Company, Limited, priority 2001, dated 2006)
Where a name gives a salt, the structure may show the parent alone.

Experiments:
bovine trypsin = target: T1, bovine trypsin (Bos taurus, UniProt P00760); assay: Determination of anti-trypsin activity (S-2222 coloring substrate, absorbance at 405 nm); assay type: biochemical; settings: bovine trypsin 0.25 μg-protein/ml, S-2222 0.4 mM, Tris buffer pH 8.4, room temperature, 5 minutes; read-out: Inhibitory Action against Trypsin Activity (IC50 (nM))
T1 construct: purchased Sigma
T1 sequence (P00760 24-246): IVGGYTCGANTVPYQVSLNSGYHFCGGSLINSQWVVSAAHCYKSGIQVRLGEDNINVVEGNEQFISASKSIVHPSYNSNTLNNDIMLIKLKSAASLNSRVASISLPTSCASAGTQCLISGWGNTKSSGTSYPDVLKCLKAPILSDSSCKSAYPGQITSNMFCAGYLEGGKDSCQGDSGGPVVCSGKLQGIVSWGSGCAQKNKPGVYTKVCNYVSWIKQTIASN
Experimental: Determination of Anti-trypsin Activity
Anti-trypsin activity was determined according to methods described by Taniuchi et al. [Thromb. Haemost., 79, 543 (1998)], which were partially modified. S-2222, a coloring substrate (5 μl, final concentration: 0.4 mM, Daiichi Pure Chemicals Co., Ltd.) and the test compound (5 μl) were mixed with Tris hydrochloride buffered solution (50 mM, 85 μl, pH: 8.4) containing NaCl (0.9%). To this solution, bovine trypsin (5 μl, final concentration: 0.25 μg-protein/ml, Sigma) was added and the reaction was started. In the control group, distilled water was added to the Tris-buffered solution instead of the test compound. The reaction mixture (in total: 0.1 ml) was incubated at room temperature. Optical absorbance was continuously determined at 405 nm with a 96-well microplate reader (Model 550, Biorad) and increase in the absorbance for 5 minutes was calculated as an indicator of trypsin activity. To assess anti-trypsin activities of the test compounds, concentrations of the test compounds to inhibit the trypsin activity by 50% (IC50) were calculated.

human factor-Xa = target: T2, human factor-Xa (Homo sapiens, UniProt P00742); assay: Determination of anti-factor Xa activity (S-2222 coloring substrate, absorbance at 405 nm); assay type: biochemical; settings: human factor-Xa 0.25 unit/ml, S-2222 0.4 mM, Tris buffer pH 8.4, room temperature, 5 minutes; read-out: Inhibitory Action against Factor Xa Activity (IC50 (nM))
T2 construct: purchased Cosmobio Co., Ltd
Experimental: Determination of Anti-factor Xa Activity
Anti-factor Xa activity was determined according to methods described by Hara et al. [Thrombo. Haemost., 71, 314 (1994)], which were slightly modified. S-2222, a coloring substrate (0.4 mM, Daiichi Pure Chemicals Co., Ltd.) and the test compounds were mixed in Tris hydrochloride buffered solution (50 mM, pH: 8.4) containing NaCl (0.9%). To this solution, human factor-Xa (0.25 unit/ml, Cosmobio Co., Ltd.) was added and the reaction was started. In the control group, distilled water was added to the Tris-buffered solution instead of the test compound. The reaction mixture (in total: 0.1 ml) was incubated at room temperature for 5 minutes. Optical absorbance of the reaction mixture was continuously determined at 405 nm with a 96-well microplate reader (Model 550, Biorad) and increase in the absorbance for 5 minutes was calculated as an indicator of factor Xa activity. To assess anti-factor Xa activities of the test compounds, concentrations of the test compounds to inhibit the factor Xa activity by 50% (IC50) were calculated.

T2 sequence (P00742 235-488 limits assumed): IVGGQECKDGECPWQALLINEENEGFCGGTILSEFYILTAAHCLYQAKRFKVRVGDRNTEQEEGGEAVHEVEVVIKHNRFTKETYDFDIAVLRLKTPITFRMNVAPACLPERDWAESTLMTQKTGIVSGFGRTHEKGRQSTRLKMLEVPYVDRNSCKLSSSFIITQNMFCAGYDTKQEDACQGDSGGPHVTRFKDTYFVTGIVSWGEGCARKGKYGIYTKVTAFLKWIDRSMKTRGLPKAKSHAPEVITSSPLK
T2 sequence (P00742 41-179 partner limits assumed): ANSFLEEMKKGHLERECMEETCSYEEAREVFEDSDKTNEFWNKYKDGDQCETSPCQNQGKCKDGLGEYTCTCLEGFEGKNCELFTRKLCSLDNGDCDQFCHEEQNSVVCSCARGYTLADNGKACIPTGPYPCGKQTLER

Row | SMILES | IC50 (bovine trypsin) [nM] | IC50 (human factor-Xa) [nM]
1 | CCOC(=O)CS(=O)(=O)N(C/C=C/c1cccc(C(=N)N)c1)c1ccc(OC2CCN(C3=NCCC3)CC2)c(Cl)c1 [Example 53, Ethyl N-[3-(3-amidinophenyl)-2-(E)-propenyl]-N-[3-chloro-4-[1-(4,5-dihydro-3H-pyrrol-2-yl)piperidin-4-yloxy]phenyl]sulfamoylacetate dihydrochloride] | 2100 | 6.8
2 | N=C(N)c1cccc(/C=C/CN(c2ccc(OC3CCN(C4=NCCO4)CC3)c(Cl)c2)S(=O)(=O)CC(=O)O)c1 [Example 89, N-[3-(3-Amidinophenyl)-2-(E)-propenyl]-N-[3-chloro-4-[1-(4,5-dihydrooxazol-2-yl)piperidin-4-yloxy]phenyl]sulfamoylacetic acid dihydrochloride] | 2000 | 11
3 | N=C(N)c1cccc(/C=C/CN(c2ccc(OC3CCN(C4=NCCC4)CC3)c(C(N)=O)c2)S(=O)(=O)CC(=O)O)c1 [Example 72, N-[3-(3-Amidinophenyl)-2-(E)-propenyl]-N-[3-carbamoyl-4-[1-(4,5-dihydro-3H-pyrrol-2-yl)piperidin-4-yloxy]phenyl]sulfamoylacetic acid dihydrochloride] | 4400 | 9.8
4 | N=C(N)c1cccc(/C=C/CN(c2ccc(OC3CCN(c4ccncc4)CC3)c(Cl)c2)S(=O)(=O)CC(=O)O)c1 [Example 28, N-[3-(3-Amidinophenyl)-2-(E)-propenyl]-N-[3-chloro-4-[1-(4-pyridyl)piperidin-4-yloxy]phenyl]sulfamoylacetic acid dihydrochloride] | 650 | 6.4
5 | CCOC(=O)CS(=O)(=O)N(C/C=C/c1cccc(C(=N)N)c1)c1ccc(OC2CCN(c3ccncc3)CC2)c(Cl)c1 [Example 27, Ethyl N-[3-(3-amidinophenyl)-2-(E)-propenyl]-N-[3-chloro-4-[1-(4-pyridyl)piperidin-4-yloxy]phenyl]sulfamoylacetate dihydrochloride] | 540 | 7.9
6 | N=CN1CCC(Oc2ccc(N(C/C=C/c3cccc(C(=N)N)c3)S(=O)(=O)CC(=O)O)cc2Cl)CC1 [Example 48, N-13-(3-Amidinophenyl)-2-(E)-propenyl]-N-[3-chloro-4-(1-formimidoylpiperidin-4-yloxy]phenyl]sulfamoylacetic acid dihydrochloride] | 1200 | 5.8
7 | Cc1cc(N(C/C=C/c2cccc(C(=N)N)c2)S(=O)(=O)CC(=O)O)ccc1OC1CCN(C2=NCCC2)CC1 [Example 66, N-[3-(3-Amidinophenyl)-2-(E)-propenyl]-N-[4-[1-(4,5-dihydro-3H-pyrrol-2-yl)piperidin-4-yloxy-]-3-methylphenyl]sulfamoylacetic acid dihydrochloride] | 5600 | 8.3
8 | N=C(N)c1cccc(/C=C/CN(c2ccc(OC3CCN(C4=NCCC4)CC3)cc2)S(=O)(=O)CC(=O)O)c1 [Example 60, N-[3-(3-Amidinophenyl)-2-(E)-propenyl]-N-[4-[1-(4,5-dihydro-3H-pyrrol-2-yl)piperidin-4-yloxy]phenyl]sulfamoylacetic acid dihydrochloride] | 3100 | 14
9 | CCOC(=O)CS(=O)(=O)N(C/C=C/c1cccc(C(=N)N)c1)c1ccc(OC2CCN(C3=NCCC3)CC2)c(C(F)(F)F)c1 [Example 77, Ethyl N-[3-(3-amidinophenyl)-2-(E)-propenyl]-N-[4-[1-(4,5-dihydro-3H-pyrrol-2-yl)piperidin-4-yloxy]-3-trifluoromethylphenyl]sulfamoylacetate dihydrochloride] | 3700 | 12
10 | CCOC(=O)CS(=O)(=O)N(C/C=C/c1cccc(C(=N)N)c1)c1ccc(OC2CCN(C=N)CC2)c(Cl)c1 [Example 47, Ethyl N-[3-(3-amidinophenyl)-2-(E)-propenyl]-N-[3-chloro-4-[(1-formimidoylpiperidin-4-yloxy)phenyl]sulfamoylacetatedihydrochloride] | 790 | 6.1
11 | N=C(N)c1cccc(/C=C/CN(c2ccc(OC3CCN(C4=NCCC4)CC3)c(Cl)c2)S(=O)(=O)CC(=O)O)c1 [Example 54, N-[3-(3-Amidinophenyl)-2-(E)-propenyl]-N-[3-chloro-4-[1-(4,5-dihydro-3H-pyrrol-2-yl)piperidin-4-yloxy]phenyl]sulfamoylacetic acid dihydrochloride] | 2200 | 7
